Experimental data taken from patent US20240141294A1, “CGMP COMPLIANT PRODUCTION AND EXPANSION OF PLASMACYTOID DENDRITIC CELLS FROM HEMATOPOIETIC STEM AND PROGENITOR CELLS” (AARHUS UNIVERSITET, priority 2021, published 2024).

System: HSPC-pDCs
Experiment: RNA-sequencing of HSPC-pDCs generated with or without ascorbic acid
Type: cell-based, human
Details: for Log2 (+AA/−AA) / +AA FPKM: Table 2
Description: HSPCs were thawed and 1×10^5 cells were seeded in DC medium with or without supplementation of ascorbic acid (AA). Following 16 days of differentiation with or without AA in the medium, pDCs were isolated by immunomagnetic depletion of non-pDCs, and HSPCs-pDCs were then primed for 72 hours with IFN-β/γ. Following priming, HSPC-pDCs were stored in RNAprotect Cell Reagent (Qiagen) at −80° C. until total RNA was extracted using the RNeasy Plus Micro Kit (Qiagen), which efficiently eliminates genomic DNA without the need for DNase treatment. The total RNA was send to BGI Europe for RNA-seq. Here, a non-stranded & polyA-selected mRNA library was prepared from the total RNA and subjected to PE100 sequencing using the BGISEQ platform. The samples generated on average about 4.84 Gb bases per sample. Low quality reads were filtered and the remaining reads were mapped to the genome with an average mapping ratio with the reference genome at 92.74%, the average gene mapping ratio at 79.90%. In total, 18,412 genes were identified. Gene expression was calculated based on the reads, differentially expressed genes and gene ontology analyses were analyzed on BGI's software analysis platform Dr. Tom. HSPCs were thawed and 1×10^5 cells were seeded in DC medium with or without supplementation of ascorbic acid (AA). Following 16 days of differentiation with or without AA in the medium, pDCs were isolated by immunomagnetic depletion of non-pDCs, and HSPCs-pDCs were then primed for 72 hours with IFN-β/γ. Following priming, HSPC-pDCs were stored in RNAprotect Cell Reagent (Qiagen) at −80 degrees until total RNA was extracted using the RNeasy Plus Micro Kit (Qiagen), which efficiently eliminates genomic DNA without the need for DNase treatment. The total RNA was send to BGI Europe for RNA-seq. Here, a non-stranded & polyA-selected mRNA library was prepared from the total RNA and subjected to PE100 sequencing using the BGISEQ platform. The samples generated on average about 4.84 Gb bases per sample. Low quality reads were filtered and the remaining reads were mapped to the genome with an average mapping ratio with the reference genome at 92.74%, the average gene mapping ratio at 79.90%. In total, 18,412 genes were identified. Gene expression was calculated based on the reads, differentially expressed genes and gene ontology analyses were analyzed on BGI's software analysis platform Dr. Tom.

## O=C1O[C@H]([C@@H](O)CO)C(O)=C1O [ascorbic acid]
Gene ACP5, Qvalue 4.83E−10
  Log2 (+AA/−AA): 2.221
Gene ACP5, −AA FPKM 31.073
  +AA FPKM: 146.980 FPKM
Gene ADAMDEC1, Qvalue 0.0010135
  Log2 (+AA/−AA): 3.569
Gene ADAMDEC1, −AA FPKM 1.127
  +AA FPKM: 13.453 FPKM
Gene ASS1, Qvalue 2.41E−08
  Log2 (+AA/−AA): 5.358
Gene ASS1, −AA FPKM 0.477
  +AA FPKM: 19.263 FPKM
Gene ATF5, Qvalue 2.01E−54
  Log2 (+AA/−AA): 2.398
Gene ATF5, −AA FPKM 24.183
  +AA FPKM: 129.867 FPKM
Gene AXL, Qvalue 9.98E−29
  Log2 (+AA/−AA): 4.406
Gene AXL, −AA FPKM 1.033
  +AA FPKM: 21.903 FPKM
Gene C3, Qvalue 0.001547846
  Log2 (+AA/−AA): 3.579
Gene C3, −AA FPKM 1.227
  +AA FPKM: 14.750 FPKM
Gene CCL2, Qvalue 5.74E−06
  Log2 (+AA/−AA): 4.646
Gene CCL2, −AA FPKM 7.183
  +AA FPKM: 179.503 FPKM
Gene CCL13, Qvalue 8.06E−14
  Log2 (+AA/−AA): 6.195
Gene CCL13, −AA FPKM 0.197
  +AA FPKM: 14.483 FPKM
Gene CD14, Qvalue 2.98E−25
  Log2 (+AA/−AA): 4.038
Gene CD14, −AA FPKM 2.797
  +AA FPKM: 46.303 FPKM
Gene CD209, Qvalue 9.84E−27
  Log2 (+AA/−AA): 2.774
Gene CD209, −AA FPKM 2.460
  +AA FPKM: 16.407 FPKM
Gene CES1, Qvalue 0.03002647
  Log2 (+AA/−AA): 3.002
Gene CES1, −AA FPKM 6.620
  +AA FPKM: 52.940 FPKM
Gene CFB, Qvalue 2.09E−06
  Log2 (+AA/−AA): 3.059
Gene CFB, −AA FPKM 1.257
  +AA FPKM: 10.533 FPKM
Gene CHI3L1, Qvalue 0.024834793
  Log2 (+AA/−AA): 2.178
Gene CHI3L1, −AA FPKM 108.107
  +AA FPKM: 495.927 FPKM
Gene CTSL, Qvalue 0.031636618
  Log2 (+AA/−AA): 2.759
Gene CTSL, −AA FPKM 3.140
  +AA FPKM: 21.410 FPKM
Gene CXCL10, Qvalue 1.78E−06
  Log2 (+AA/−AA): 2.352
Gene CXCL10, −AA FPKM 36.100
  +AA FPKM: 183.493 FPKM
Gene DEFA1, Qvalue 6.38E−05
  Log2 (+AA/−AA): 5.728
Gene DEFA1, −AA FPKM 19.907
  +AA FPKM: 1047.070 FPKM
Gene DEFA3, Qvalue 0.001704486
  Log2 (+AA/−AA): 4.431
Gene DEFA3, −AA FPKM 27.457
  +AA FPKM: 593.480 FPKM
Gene DEFA4, Qvalue 1.65E−08
  Log2 (+AA/−AA): 4.651
Gene DEFA4, −AA FPKM 39.303
  +AA FPKM: 975.213 FPKM
Gene DNASE1L3, Qvalue 5.63E−10
  Log2 (+AA/−AA): 2.459
Gene DNASE1L3, −AA FPKM 1.893
  +AA FPKM: 10.470 FPKM
Gene FPR3, Qvalue 3.93E−08
  Log2 (+AA/−AA): 2.200
Gene FPR3, −AA FPKM 10.853
  +AA FPKM: 50.280 FPKM
Gene GIMAP4, Qvalue 3.03E−09
  Log2 (+AA/−AA): 2.409
Gene GIMAP4, −AA FPKM 3.960
  +AA FPKM: 20.933 FPKM
Gene GPNMB, Qvalue 4.79E−08
  Log2 (+AA/−AA): 4.418
Gene GPNMB, −AA FPKM 4.760
  +AA FPKM: 101.280 FPKM
Gene GZMB, Qvalue 3.57E−07
  Log2 (+AA/−AA): 3.081
Gene GZMB, −AA FPKM 3.773
  +AA FPKM: 31.393 FPKM
Gene HSD11B1, Qvalue 0.044667374
  Log2 (+AA/−AA): 3.736
Gene HSD11B1, −AA FPKM 1.240
  +AA FPKM: 16.590 FPKM
Gene IFI27, Qvalue 3.56E−04
  Log2 (+AA/−AA): 4.638
Gene IFI27, −AA FPKM 14.857
  +AA FPKM: 376.697 FPKM
Gene IFI44L, Qvalue 1.82E−05
  Log2 (+AA/−AA): 2.109
Gene IFI44L, −AA FPKM 17.913
  +AA FPKM: 81.280 FPKM
Gene IL4I1, Qvalue 5.63E−07
  Log2 (+AA/−AA): 2.589
Gene IL4I1, −AA FPKM 4.657
  +AA FPKM: 28.410 FPKM
Gene IL32, Qvalue 2.92E−23
  Log2 (+AA/−AA): 2.353
Gene IL32, −AA FPKM 5.960
  +AA FPKM: 30.560 FPKM
Gene KYNU, Qvalue 2.56E−05
  Log2 (+AA/−AA): 2.148
Gene KYNU, −AA FPKM 6.050
  +AA FPKM: 26.750 FPKM
Gene LAG3, Qvalue 8.08E−20
  Log2 (+AA/−AA): 3.418
Gene LAG3, −AA FPKM 2.770
  +AA FPKM: 29.953 FPKM
Gene LCN2, Qvalue 1.39E−54
  Log2 (+AA/−AA): 5.282
Gene LCN2, −AA FPKM 0.930
  +AA FPKM: 35.670 FPKM
Gene LILRB4, Qvalue 3.21E−22
  Log2 (+AA/−AA): 3.922
Gene LILRB4, −AA FPKM 1.363
  +AA FPKM: 19.833 FPKM
Gene MAFB, Qvalue 0.00100367
  Log2 (+AA/−AA): 3.471
Gene MAFB, −AA FPKM 1.023
  +AA FPKM: 11.443 FPKM
Gene MMP14, Qvalue 1.27E−18
  Log2 (+AA/−AA): 4.564
Gene MMP14, −AA FPKM 1.470
  +AA FPKM: 34.870 FPKM
Gene MPEG1, Qvalue 3.81E−23
  Log2 (+AA/−AA): 2.325
Gene MPEG1, −AA FPKM 22.783
  +AA FPKM: 112.763 FPKM
Gene MX1, Qvalue 0.026353098
  Log2 (+AA/−AA): 2.341
Gene MX1, −AA FPKM 41.507
  +AA FPKM: 211.673 FPKM
Gene MYL9, Qvalue 9.98E−29
  Log2 (+AA/−AA): 4.530
Gene MYL9, −AA FPKM 0.550
  +AA FPKM: 12.580 FPKM
Gene NUPR1, Qvalue 8.23E−04
  Log2 (+AA/−AA): 3.257
Gene NUPR1, −AA FPKM 1.457
  +AA FPKM: 14.303 FPKM
Gene OLR1, Qvalue 0.030792442
  Log2 (+AA/−AA): 2.719
Gene OLR1, −AA FPKM 1.523
  +AA FPKM: 10.067 FPKM
Gene ORM1, Qvalue 1.09E−20
  Log2 (+AA/−AA): 4.863
Gene ORM1, −AA FPKM 3.003
  +AA FPKM: 88.200 FPKM
Gene P2RY11, Qvalue 3.25E−10
  Log2 (+AA/−AA): 3.498
Gene P2RY11, −AA FPKM 0.970
  +AA FPKM: 10.823 FPKM
Gene PLA2G7, Qvalue 0.030445407
  Log2 (+AA/−AA): 2.759
Gene PLA2G7, −AA FPKM 12.103
  +AA FPKM: 86.573 FPKM
Gene SIGLEC1, Qvalue 0.003740839
  Log2 (+AA/−AA): 2.998
Gene SIGLEC1, −AA FPKM 3.223
  +AA FPKM: 26.273 FPKM
Gene SLC7A7, Qvalue 6.15E−21
  Log2 (+AA/−AA): 2.460
Gene SLC7A7, −AA FPKM 9.010
  +AA FPKM: 49.703 FPKM
Gene SLC15A3, Qvalue 4.84E−06
  Log2 (+AA/−AA): 2.417
Gene SLC15A3, −AA FPKM 9.753
  +AA FPKM: 52.340 FPKM
Gene SPON2, Qvalue 6.39E−10
  Log2 (+AA/−AA): 2.497
Gene SPON2, −AA FPKM 4.037
  +AA FPKM: 22.397 FPKM
Gene ST14, Qvalue 1.06E−29
  Log2 (+AA/−AA): 2.575
Gene ST14, −AA FPKM 1.920
  +AA FPKM: 11.390 FPKM
Gene TLR7, Qvalue 1.13E−20
  Log2 (+AA/−AA): 2.326
Gene TLR7, −AA FPKM 2.483
  +AA FPKM: 12.300 FPKM
Gene USP18, Qvalue 0.029120385
  Log2 (+AA/−AA): 3.335
Gene USP18, −AA FPKM 2.210
  +AA FPKM: 22.600 FPKM
Gene XCR1, Qvalue 2.80E−29
  Log2 (+AA/−AA): 2.881
Gene XCR1, −AA FPKM 1.363
  +AA FPKM: 10.463 FPKM
Table 3, gene FCER1G, Qvalue 0.03
  log2 (+AA/−AA): 0.509
